Test results from ChEMBL document CHEMBL5543072, “Discovery of a novel lead characterized by a stilbene-extended scaffold against sepsis as soluble epoxide hydrolase inhibitors” (Eur J Med Chem, 2024).

Legend:
[1] = Tmax in Sprague-Dawley rat at 5 mg/kg, iv measured after 24 hrs; type: ADME, organism-based; conditions: in vivo
[2] = Apparent volume of distribution in Sprague-Dawley rat at 5 mg/kg, iv measured after 24 hrs; type: ADME, organism-based; conditions: in vivo, read-out: Vz
[3] = Oral bioavailability in Sprague-Dawley rat at 20 mg/kg measured after 24 hrs; type: ADME, organism-based; conditions: in vivo
[4] = test system: Mus musculus; experiment: Protection against LPS-induced sepsis in C57BL/6J mouse model assessed as survival rate at 30 mg/kg, iv measured after 48 hrs relative to control; type: functional
[5] = test system: Mus musculus; experiment: Protection against LPS-induced sepsis in C57BL/6J mouse model assessed as survival rate at 0.5 mg/kg, iv measured after 24 hrs relative to control; type: functional
[6] = test system: Mus musculus; experiment: Protection against LPS-induced sepsis in C57BL/6J mouse model assessed as survival rate at 0.5 mg/kg, iv measured after 48 hrs relative to control; type: functional
[7] = test system: Mus musculus; experiment: Protection against LPS-induced sepsis in C57BL/6J mouse model assessed as survival rate at 0.05 mg/kg, iv measured after 72 hrs relative to control; type: functional
[8] = test system: Mus musculus; experiment: Protection against LPS-induced sepsis in C57BL/6J mouse model assessed as […] at 5 mg/kg, iv measured after 24 hrs relative to control; type: functional
[9] = test system: Mus musculus; experiment: Anti-inflammatory activity in LPS-induced C57BL/6J mouse model of sepsis assessed as IL-6 in liver at 5 mg/kg, ip preadministered with compound for 24 hrs followed by LPS administration and measured after 3 hrs by ELISA (reference value: 308 pg/ml); type: functional; conditions: time 27 hrs
[10] = test system: Mus musculus; experiment: Anti-inflammatory activity in LPS-induced C57BL/6J mouse model of sepsis assessed as IL-6 in serum at 5 mg/kg, ip preadministered with compound for 24 hrs followed by LPS administration and measured after 3 hrs by ELISA (reference value: 17292 pg/ml); type: functional; conditions: time 27 hrs
[11] = AUC (0 to 24 hrs)in C57BL/6J mouse blood at 5 mg/kg, ip measured after 24 hrs by LC-MS/MS analysis; type: ADME, organism-based
[12] = Cmax in C57BL/6J mouse liver at 5 mg/kg, ip measured after 24 hrs by LC-MS/MS analysis; type: ADME, organism-based
[13] = AUC (0 to 24 hrs) in C57BL/6J mouse liver at 5 mg/kg, ip measured after 24 hrs by LC-MS/MS analysis; type: ADME, organism-based; conditions: in vivo
[14] = in vivo; conditions: C57BL/6J, mouse, other tissue, ip, 5 mg/kg
Description: Ratio of Cmax in C57BL/6J mouse liver to blood at 5 mg/kg, ip measured after 24 hrs by LC-MS/MS analysis

[15] = in vivo; conditions: C57BL/6J, mouse, other tissue, ip, 5 mg/kg; remark: listed apart in the source
Description: Ratio of AUC (0 to 24 hrs)in C57BL/6J mouse liver to blood at 5 mg/kg, ip measured after 24 hrs by LC-MS/MS analysis

O=C(Cc1ccccn1)Nc1cccc(/C=C/c2ccc(NC(=O)NCC3CCOCC3)cc2)c1
Tmax [1]: 4.8 min
Vd [2]: 10.8 L/kg
bioavailability [3]: 5.1%
survival at 30 mg/kg [4]: 50%
survival at 0.5 mg/kg [5]: 50%
survival at 0.5 mg/kg [6]: 40%
survival at 0.05 mg/kg [7]: 10%
Activity [8]: 40%
Activity [9]: 270 pg/mL
Activity [10]: 15627 pg/mL
AUC(0-t) at 24 h [11]: 122 ng·h/mL
Cmax [12]: 2510 ng/g
AUC [13]: 21370 ng·h/g
Kp at 24 h [14]: 7.6
Kp at 24 h [15]: 175
